Values joined by “and” are separate entries in the source; they are usually repeats but may differ in a detail not shown here. Equal entries are not always repeated. Inconclusive results and toxic doses are left out.
Tested on: CD2F1 mice, ip Colon 26 adenocarcinoma, median survival T/C
Test: NCI In Vivo Anticancer Drug Screen. Data for tumor model Colon 26 Adenocarcinoma (intraperitoneal) in CD2F1 (CDF1) mice
Settings: endpoint: median survival time, higher = longer survival
Protocol: The antitumor activity of compounds was measured in mice bearing transplantable tumors. Survival or tumor size were measured and the results are expressed as the measurement made in the treated group (T) divided by the measurement made in the vehicle treated control group (C). The tumor model used in this assay is Colon 26 Adenocarcinoma (intraperitoneal) in CD2F1 (CDF1) mice

[1] = dose: 6.25 mg/kg/injection, schedule: Q04DX003 (ip), vehicle: saline
[2] = dose: 12.5 mg/kg/injection, schedule: Q04DX003 (ip), vehicle: saline
[3] = dose: 50.0 mg/kg/injection, schedule: Q04DX003 (ip), vehicle: Klucel (hydroxypropylcellulose) (HPC)
[4] = dose: 200.0 mg/kg/injection, schedule: Q04DX003 (ip), vehicle: Klucel (hydroxypropylcellulose) (HPC)
[5] = dose: 12.5 mg/kg/injection, schedule: Q04DX003 (ip), vehicle: Klucel (hydroxypropylcellulose) (HPC)
[6] = dose: 25.0 mg/kg/injection, schedule: Q04DX003 (ip), vehicle: Klucel (hydroxypropylcellulose) (HPC)

CC(=O)[C@]1(O)Cc2c(O)c3c(c(O)c2[C@@H](OC2CC(N)C(O)C(C)O2)C1)C(=O)c1c(O)cccc1C3=O (stereo not given in full)
T/C (dose: 0.7 mg/kg/injection, schedule: Q07DX003 (iv), vehicle: water): 106 % of control
T/C (dose: 1.1 mg/kg/injection, schedule: Q07DX003 (iv), vehicle: water): 124 % of control
T/C (dose: 1.8 mg/kg/injection, schedule: Q07DX002 (iv), vehicle: water): 157 % of control
T/C (dose: 1.8 mg/kg/injection, schedule: Q07DX003 (iv), vehicle: water): 157 % of control
T/C (dose: 2.8 mg/kg/injection, schedule: Q07DX002 (iv), vehicle: water): 183 % of control
T/C (dose: 2.8 mg/kg/injection, schedule: Q07DX003 (iv), vehicle: water): 187 % of control
T/C (dose: 4.2 mg/kg/injection, schedule: Q07DX002 (iv), vehicle: water): 104 % of control
T/C (dose: 600.0 micrograms/kg/injection, schedule: Q04DX003 (ip), vehicle: water): 92 % of control

OCCN1CCN(CC/C=C2/c3ccccc3Sc3ccc(C(F)(F)F)cc32)CC1
T/C (dose: 3.13 mg/kg/injection, schedule: Q04DX003 (ip), vehicle: saline): 98 % of control
T/C [1]: 91 % of control
T/C [2]: 91 % of control

O=NN(CCCl)C(=O)NCCCl
T/C (dose: 4.0 mg/kg/injection, schedule: Q04DX003 (ip), vehicle: saline + alcohol): 168 % of control
T/C (dose: 8.0 mg/kg/injection, schedule: Q04DX003 (ip), vehicle: saline + alcohol): 250 % of control
T/C (dose: 16.0 mg/kg/injection, schedule: Q04DX003 (ip), vehicle: saline + alcohol): 335 % of control
T/C (dose: 20.0 mg/kg/injection, schedule: Q04DX003 (oral), vehicle: saline + alcohol): 161 % of control
T/C (dose: 33.0 mg/kg/injection, schedule: Q04DX003 (oral), vehicle: saline + alcohol): 255 % of control
T/C (dose: 53.0 mg/kg/injection, schedule: Q04DX003 (oral), vehicle: saline + alcohol): 289 % of control
T/C (dose: 85.0 mg/kg/injection, schedule: Q04DX003 (oral), vehicle: saline + alcohol): 285 % of control

C1CN(P2(N3CC3)=NP(N3CC3)(N3CC3)=NP(N3CC3)(N3CC3)=N2)CCO1 (stereo not given)
T/C [1]: 92 % of control
T/C [2]: 121 % of control
T/C (dose: 50.0 mg/kg/injection, schedule: Q04DX003 (ip), vehicle: saline): 163 % of control

O=c1oc2cc(N=Cc3ccccc3Cl)ccc2c2ccccc12
T/C [3]: 100 % of control
T/C (dose: 100.0 mg/kg/injection, schedule: Q04DX003 (ip), vehicle: Klucel (hydroxypropylcellulose) (HPC)): 97 % of control
T/C [4]: 98 % of control
T/C (dose: 400.0 mg/kg/injection, schedule: Q04DX003 (ip), vehicle: Klucel (hydroxypropylcellulose) (HPC)): 98 % of control

CC1(CO)C(O)CCC2(C)C1CCC1CC3CC12CCC3(O)CO (stereo not given)
T/C (dose: 25.0 mg/kg/injection, schedule: Q01DX009 (ip), vehicle: saline with Tween-80): 167 % of control
T/C (dose: 50.0 mg/kg/injection, schedule: Q04DX003 (oral), vehicle: saline with Tween-80): 105 % of control and 106 % of control and 113 % of control
T/C (dose: 100.0 mg/kg/injection, schedule: Q04DX003 (oral), vehicle: saline with Tween-80): 101 % of control and 119 % of control and 100 % of control
T/C (dose: 600.0 mg/kg/injection, schedule: Q04DX003 (ip), vehicle: saline with Tween-80): 100 % of control
T/C (dose: 1600.0 mg/kg/injection, schedule: Q04DX003 (oral), vehicle: saline with Tween-80): 106 % of control

CC(=O)Oc1ccccc1C(=O)O
T/C (dose: 72.0 mg/kg/injection, schedule: Q04DX002 (ip), vehicle: saline with Tween-80): 89 % of control

CN(Cc1cnc2nc(N)nc(N)c2n1)c1ccc(C(=O)N[C@@H](CCC(=O)O)C(=O)O)cc1
T/C (dose: 30.0 mg/kg/injection, schedule: Q07DX003 (ip), vehicle: saline): 105 % of control
T/C (dose: 44.0 mg/kg/injection, schedule: Q07DX003 (ip), vehicle: saline): 88 % of control
T/C (dose: 44.0 mg/kg/injection, schedule: Q07DX003 (ip), vehicle: sodium bicarbonate): 121 % of control
T/C (dose: 63.0 mg/kg/injection, schedule: Q07DX003 (ip), vehicle: saline): 93 % of control

N=[N+]=CC(=O)OCC(N)C(=O)O (stereo not given)
T/C (dose: 3.12 mg/kg/injection, schedule: Q04DX003 (ip), vehicle: water): 113 % of control
T/C (dose: 6.25 mg/kg/injection, schedule: Q04DX003 (ip), vehicle: water): 113 % of control
T/C (dose: 12.5 mg/kg/injection, schedule: Q04DX003 (ip), vehicle: water): 105 % of control
T/C (dose: 25.0 mg/kg/injection, schedule: Q04DX003 (ip), vehicle: water): 111 % of control
T/C (dose: 50.0 mg/kg/injection, schedule: Q04DX003 (ip), vehicle: water): 95 % of control

CN(C)C=O
T/C (dose: 100.0 mg/kg/injection, schedule: Q04DX002 (ip), vehicle: saline): 93 % of control
T/C (dose: 400.0 mg/kg/injection, schedule: Q04DX002 (ip), vehicle: saline): 90 % of control
T/C (dose: 800.0 mg/kg/injection, schedule: Q04DX002 (ip), vehicle: saline): 168 % of control
T/C (dose: 1600.0 mg/kg/injection, schedule: Q04DX002 (ip), vehicle: saline): 93 % of control

CN(C1=NS(=O)(=O)N=C(N(C)c2ccccc2)O1)c1ccccc1
T/C [5]: 96 % of control
T/C [6]: 89 % of control
T/C [3]: 95 % of control
T/C [4]: 90 % of control

Nc1nc(=S)c2ncn(C3CC(O)C(CO)O3)c2[nH]1 (stereo not given)
T/C (dose: 4.0 mg/kg/injection, schedule: Q04DX002 (ip), vehicle: saline with Tween-80): 121 % of control
T/C (dose: 8.0 mg/kg/injection, schedule: Q04DX002 (ip), vehicle: saline with Tween-80): 106 % of control
T/C (dose: 10.0 mg/kg/injection, schedule: Q04DX003 (ip), vehicle: saline with Tween-80): 177 % of control
T/C (dose: 16.0 mg/kg/injection, schedule: Q04DX002 (ip), vehicle: saline with Tween-80): 106 % of control and 119 % of control
T/C (dose: 32.0 mg/kg/injection, schedule: Q04DX002 (ip), vehicle: saline with Tween-80): 102 % of control
T/C (dose: 40.0 mg/kg/injection, schedule: Q04DX003 (ip), vehicle: saline with Tween-80): 157 % of control
T/C (dose: 64.0 mg/kg/injection, schedule: Q04DX002 (ip), vehicle: saline with Tween-80): 124 % of control
T/C (dose: 128.0 mg/kg/injection, schedule: Q04DX002 (ip), vehicle: saline with Tween-80): 116 % of control
T/C (dose: 256.0 mg/kg/injection, schedule: Q04DX002 (ip), vehicle: saline with Tween-80): 109 % of control

O=c1c(O)c(-c2ccc(O)c(O)c2)oc2cc(O)cc(O)c12
T/C (dose: 100.0 mg/kg/injection, schedule: Q04DX003 (ip), vehicle: other): 89 % of control
T/C (dose: 800.0 mg/kg/injection, schedule: Q04DX003 (ip), vehicle: other): 87 % of control

Nc1ncnc2c1ccn2C1OC(CO)C(O)C1O (stereo not given)
T/C (dose: 0.5 mg/kg/injection, schedule: Q04DX003 (ip), vehicle: Klucel (hydroxypropylcellulose) (HPC)): 98 % of control
T/C (dose: 1.0 mg/kg/injection, schedule: Q04DX003 (ip), vehicle: Klucel (hydroxypropylcellulose) (HPC)): 119 % of control
T/C (dose: 2.0 mg/kg/injection, schedule: Q04DX003 (ip), vehicle: Klucel (hydroxypropylcellulose) (HPC)): 118 % of control
T/C (dose: 4.0 mg/kg/injection, schedule: Q04DX003 (ip), vehicle: Klucel (hydroxypropylcellulose) (HPC)): 115 % of control

[I][Hg][CH2]C1COC([CH2][Hg][I])CO1 (stereo not given)
T/C (dose: 12.5 mg/kg/injection, schedule: Q04DX003 (ip), vehicle: saline with Tween-80): 117 % of control
T/C (dose: 25.0 mg/kg/injection, schedule: Q04DX003 (ip), vehicle: saline with Tween-80): 109 % of control
T/C (dose: 50.0 mg/kg/injection, schedule: Q04DX003 (ip), vehicle: saline with Tween-80): 96 % of control

Cc1c(N)nc([C@H](CC(N)=O)NC[C@H](N)C(N)=O)nc1C(=O)N[C@H](C(=O)N[C@H](C)[C@@H](O)[C@H](C)C(=O)N[C@H](C(=O)NCCc1nc(-c2nc(C(=O)NCCC[S+](C)C)cs2)cs1)[C@@H](C)O)C(OC1OC(CO)C(O)C(O)C1OC1OC(CO)C(O)C(OC(N)=O)C1O)c1cnc[nH]1 (stereo not given in full)
T/C (dose: 1.0 mg/kg/injection, schedule: Q01DX009 (ip), vehicle: saline): 115 % of control
T/C (dose: 2.0 mg/kg/injection, schedule: Q01DX009 (ip), vehicle: saline): 111 % of control
T/C (dose: 4.0 mg/kg/injection, schedule: Q01DX009 (ip), vehicle: saline): 107 % of control
T/C (dose: 8.0 mg/kg/injection, schedule: Q01DX009 (ip), vehicle: saline): 111 % of control
T/C (dose: 16.0 mg/kg/injection, schedule: Q01DX009 (ip), vehicle: saline): 111 % of control

CC(=O)OCc1cc(=O)n(C)c2c3c4c(cc12)c(C)cc(=O)n4CO3
T/C [5]: 106 % of control
T/C [6]: 106 % of control
T/C [3]: 115 % of control
T/C [4]: 115 % of control
